Assay: In vitro release of Rg3 by the dialysis method
Assay type: physicochemical
Details: after 24 hours, PBS pH 7.4, 37° C.
Experimental: To estimate the Rg3-loaded nanoniosome's in vitro drug release profile, 1 mL of the formulation was placed inside a dialysis bag and then immersed in a PBS solution (maintained at 37° C. and a pH of 7.4) with constant stirring. The PBS solution surrounding the dialysis bag (which contained released Rg3) was extracted at different time intervals for 24 hours, and the absorbance intensity was measured at 203 nm. The quantity of Rg3 measured in the medium is divided by the starting amount of Rg3 in the formulation to determine the amount of Rg3 released.

Question: For `CC(C)=CCC[C@](C)(O)[C@H]1CC[C@]2(C)[C@@H]1[C@H](O)C[C@@H]1[C@@]3(C)CC[C@H](O[C@@H]4O[C@H](CO)[C@@H](O)[C@H](O)[C@H]4O[C@@H]4O[C@H](CO)[C@@H](O)[C@H](O)[C@H]4O)C(C)(C)[C@@H]3CC[C@]12C` [Ginsenoside Rg3], which “release of the loaded drug” value is on record?
Answer: 24.78%

Source: US20250041236A1, “METHOD FOR SYNTHESIZING GINSENOSIDE RG3-LOADED NANONIOSOMES” (priority 2024, published 2025)
